# Conditions: buffer; pH 7.4; 200.0 µM
row,SMILES,solubility kinetic [µg/mL]
1,O=C(CNC(=O)c1ccccc1F)OCC(=O)c1ccc(Cl)s1,> 53.4
2,Cc1ccc(S(=O)(=O)N(C)CC(=O)NCCCn2ccnc2)cc1,48.6
3,CN(Cc1ccccc1)Cc1c(O)ccc2ccccc12,26.6
4,O=C(c1ccc(Cl)c(S(=O)(=O)N2CCOCC2)c1)N1CCc2ccccc2C1,> 63.1
5,Cc1ccc(NC(=S)NC(=O)c2cccs2)cc1F,1.6
6,Cc1cccc(C)c1NC(=S)N1CCCN(C)CC1,> 41.6
7,CC(C)(C)c1ccc(NC(=O)CCNC(=O)c2ccco2)cc1,> 47.2
8,CN(CC(=O)Nc1cccc(F)c1)CC(=O)Nc1ccccc1[N+](=O)[O-],49.7
9,Cl.O=C(OCCN1CCOCC1)c1ccccc1Cl,> 45.9
10,CC(=O)Oc1ccccc1C(=O)N(C1CCCCC1)C1CCCCC1,44.5
11,Cc1cccc(NC(=O)CCCC(=O)OC(C)C(=O)c2ccccc2)c1 (stereo unspecified),46.1
12,O=C(NCCc1ccc(Cl)cc1)C1(c2ccccc2)CC1,35.4
13,Cc1cccc(OCC(=O)Nc2ccc3nc(C)sc3c2)c1,1.8
14,O=C(NC(=S)NC(CO)Cc1ccccc1)c1ccc(F)cc1 (stereo unspecified),4.9
15,O=c1[nH]cnc2c1C(c1ccc(Cl)cc1)c1c(nc[nH]c1=O)O2,43.5
16,CCOc1cc(CN2CCc3c([nH]c4ccccc34)C2)ccc1OC,32.8
17,CC1CCCCN1C(=O)CSc1nc2ncccc2[nH]1 (stereo unspecified),> 43.6
18,CS(=O)(=O)N(CC(=O)Nc1ccc(Br)cc1)C1CCCCC1,55.5
19,CC(C)OCCCNC(=O)NC(=O)c1ccc(Cl)cc1,18.3
20,O=C(CSc1ncccn1)N1CCC(Cc2ccccc2)CC1,> 49.1
21,Cc1ccc(C)c(S(=O)(=O)N2CCCN(C)CC2)c1,> 42.4
22,CCN(C(=O)COC(=O)c1ccc[nH]c1=O)c1cccc2ccccc12,> 52.6

row,SMILES,solubility kinetic [µg/mL]
1,COc1nc(-c2ccccc2)c2cc(C)ccc2n1,15.4
2,O=C(CN1CCCC1)Nc1ccccc1C(=O)c1ccccc1,44
3,O=C(Nc1ccc(C(=O)Nc2ccccc2Cl)cc1)c1cccnc1,2.3
4,COc1cc(/C=C/C(=O)OCC(=O)NCc2ccc(F)cc2)ccc1O,> 53.9
5,CC(C)c1ccccc1NC(=S)N(C)C,> 33.4
6,COc1ccc(CNC2c3ccccc3-c3ccccc32)cc1OC,31.4
7,COc1ccc(-c2csc(Nc3ccc(C)cn3)n2)cc1OC,1.3
8,O=C(Nc1ccncc1)Nc1cccc(C(F)(F)F)c1,5.4
9,CC(=O)Nc1ccc(NC(=O)COC(=O)COc2ccc3ccccc3c2)cc1,9.7
10,CC(Nc1nc(=S)nc(Nc2ccc(F)cc2)[nH]1)c1ccccc1 (stereo unspecified),0.6
11,Cc1cccc(C(=O)Nc2ccnc(-c3cccnc3)n2)c1,5.4
12,CC1Cc2ccccc2N1S(=O)(=O)c1cnc(Cl)c(Br)c1 (stereo unspecified),< 0.4
13,O=C1Nc2ccc(Cl)cc2C(=O)C1(F)c1ccccc1 (stereo unspecified),1.7
14,Cc1ccc(NC(=O)NCc2cccnc2)cc1C,38.2
15,Cc1cc(N2CCOCC2)nc2ccc(NC(=S)NC(C)C)cc12,4.6
16,O=C(NC1CC1)C1CCN(C(=O)c2ccc(Cl)cc2)CC1,45.8
17,CC1=CC(=C(C#N)C#N)C=C(C)N1CCN1CCNCC1,> 42.5
18,COc1ccc(C(=O)Nc2ccc3[nH]ccc3c2)cc1,> 39.9
19,Cc1ccc(-c2noc(CN(C)C(=O)c3ccoc3C)n2)cc1,34.4
20,Cc1ccccc1C(=O)OCC(=O)NCC1COc2ccccc2O1 (stereo unspecified),40.9
21,O=C(NC1CCCC1)c1cc2c(=O)n3ccccc3nc2s1,11.2
22,O=C(Oc1ccc2ccc(=O)oc2c1)c1ccc([N+](=O)[O-])cc1,0.9

row,SMILES,solubility kinetic [µg/mL]
1,O=C(Nc1ccccc1C(=O)NC1CC1)c1ccccc1F,44.6
2,O=C(O)CSc1nccc2ccccc12,> 32.9
3,O=C(O)/C=C/C(=O)Nc1ccc(C(=O)c2ccccc2)cc1,> 44.3
4,CC(=O)c1ccccc1NC(=O)c1ccc(OCc2c(C)noc2C)cc1,2.6
5,CC(NS(=O)(=O)c1ccc2ccccc2c1)c1ccccn1.Cl (stereo unspecified),> 52.3
6,O=C(Nc1cc(Cl)ccc1N1CCOCC1)c1cccnc1,> 47.7
7,CN1C(=O)/C(=C/c2ccc(OCc3ccc(F)cc3)cc2)N(C)C1=S,< 0.4
8,Cc1cc(=O)oc(C)c1C(=O)Nc1cccc(F)c1,> 39.2
9,CCc1ccccc1NC(=O)c1ccccc1N1C(=O)C2C3C=CC(C3)C2C1=O (stereo unspecified),43.4
10,Cc1ccc(Cn2cc(C=O)c3ccccc32)cc1,11.7
11,CCOP(=O)(OCC)C(Nc1ccc(C(=O)O)cc1)c1ccccc1 (stereo unspecified),> 54.5
12,Cc1cc(C)nc(Nc2cccc3ccccc23)n1,18.7
13,COc1ccc(S(=O)(=O)N2CCN(C)CC2)cn1,> 40.7
14,O=C(NC(c1ccccc1)c1ccccc1)c1ccc(CO)cc1,44.2
15,Cc1ccc(Cl)cc1NC(=O)COC(=O)c1ccccc1O,< 0.7
16,O=C(COC(=O)/C=C/c1ccc([N+](=O)[O-])cc1)NCc1cccs1,4.2
17,CCCc1cc(C(=O)Nc2ccc(Cl)cn2)cs1,0.7
18,CCN(CC(=O)NCc1ccc(F)cc1)C(=O)c1ccc(C)o1,> 47.8
19,Cc1cc(C)n2nc(C(=O)OCC(=O)Nc3ccc(C)c(F)c3)nc2n1,> 53.6
20,O=C(COC(=O)c1ccncc1)Nc1cccc2ccccc12,40.3
21,Cn1ccnc1COc1ccc(C=O)cc1,> 32.4
22,Cc1ccc(NC(=O)c2ccccn2)c(Br)c1,< 0.3

row,SMILES,solubility kinetic [µg/mL]
1,CCOC(=O)c1sc2nc(C)nc(NC3CCC(O)CC3)c2c1C (stereo unspecified),< 0.2
2,Cn1ncc([N+](=O)[O-])c1C(=O)Nc1ccccc1Cl,> 42.1
3,CCCCNC(=O)C(=O)Nc1cc2c3c(c1)CCC(=O)N3CCC2,1.5
4,N=C1SCC(=O)N1c1ccccc1Cl,> 34
5,O=C(Nc1cccc(NC(=O)c2ccccc2F)c1)c1ccccc1,0.9
6,COc1ccc(CNC(=O)COC(=O)c2cc(C)nc3ccccc23)cc1,18.3
7,CC(CN1CCN(Cc2ccccc2)CC1)c1ccccc1.O=C(O)C(=O)O (stereo unspecified),7.2
8,COC(=O)c1sccc1NC(=O)Nc1ccc(OC)cc1OC,15.4
9,CCN(CC)CCn1c(NC(=O)c2ccc(C)cc2)nc2ccccc21,25.9
10,Cc1cccc(-c2ncc(S(=O)(=O)C(C)(C)C)c(N)n2)c1,0.2
11,CC1CCCN(C2(O)C(=O)Nc3ccc(Br)cc32)C1 (stereo unspecified),> 48.8
12,COc1cc(NC(=O)c2cc(C)no2)cc(OC)c1OC,> 43.8
13,Cc1ccc(OCC(=O)Nc2ccc(S(=O)(=O)N3CCCC3)cc2)cc1,0.5
14,O=C(Nn1cnc2ccccc2c1=O)c1ccccc1F,> 42.5
15,CC(CN1CCC(O)CC1)c1ccccc1 (stereo unspecified),26.6
16,O=C(CCCc1ccccc1)Nc1ccc(Br)cc1F,< 0.7
17,CC(=NCC1CCCO1)c1c(O)n(C2CCCCC2)c(=O)[nH]c1=O (stereo unspecified),> 50.3
18,CCCN1CNC(=S)N(c2cccc(C)c2)C1,37.2
19,CCOC(=O)N1CCN(C(=S)NC(=O)C2CCCC2)CC1,> 47
20,COc1cccc(C2(C#N)CCN(C)CC2)c1,> 34.5

# — PubChem BioAssay AID1996
